Measurements: US6013642A, “Use of estrone derivatives as steroid sulphatase inhibitors” (priority 1994, dated 2000)
pIC50: −log10 of the molar value.

Experiments:
[1] = molecular target: T1, U937 DHEAS sulphatase (Homo sapiens, UniProt P08842); test: DHEAS sulphatase activity in U937 cell extracts; assay type: biochemical
T1 construct: DHEAS sulphatase activity in U937 cell extracts; endogenous in cells; host or cells: U937 cells (sonicate in Tris buffered saline with 1% Triton X-100)
T1 sequence (P08842 22-583): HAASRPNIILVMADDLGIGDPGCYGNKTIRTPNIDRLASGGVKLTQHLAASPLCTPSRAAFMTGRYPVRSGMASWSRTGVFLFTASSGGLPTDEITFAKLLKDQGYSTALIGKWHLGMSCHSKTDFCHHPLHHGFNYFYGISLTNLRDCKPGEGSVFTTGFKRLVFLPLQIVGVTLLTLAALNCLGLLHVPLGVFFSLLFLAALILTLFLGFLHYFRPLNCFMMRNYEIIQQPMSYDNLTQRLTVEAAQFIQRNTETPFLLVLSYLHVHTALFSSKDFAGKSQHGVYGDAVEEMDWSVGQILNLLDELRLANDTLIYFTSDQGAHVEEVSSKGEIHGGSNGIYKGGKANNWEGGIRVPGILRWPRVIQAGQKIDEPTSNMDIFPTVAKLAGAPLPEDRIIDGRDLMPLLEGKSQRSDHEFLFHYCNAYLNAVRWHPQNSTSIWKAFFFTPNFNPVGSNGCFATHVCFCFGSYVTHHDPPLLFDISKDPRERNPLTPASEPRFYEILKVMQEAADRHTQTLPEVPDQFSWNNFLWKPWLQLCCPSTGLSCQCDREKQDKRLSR
Procedure: c) DHEAS sulphatase activity in U937 cell extracts.
The inhibitors Ct 2211 and Ct 2251 were dissolved in 100% ethanol and 100% dimethyl sulphoxide (DMSO) respectively at stock concentrations of 20 mM. These were titrated in their respective solvents over a range of assay concentrations. The tritiated substrates DHEA sulphate and estrone sulphate were obtained from New England Nuclear and diluted in ethanol to give a final concentration of 70 nM for use in the assay. U937 cells were grown in RPLI containing 10% foetal bovine serum and harvested at a cell concentration of 1×10^6 /ml. These were washed in serum free medium stored at -70° C. at 1×10^8 /ml in Tris buffered saline pH7.4+1% triton X-100 and sonicated prior to use in the assay.
50 μl of substrate in ethanol was added to each assay tube and the solvent removed in a rotary vacuum evaporator. […] After centrifugation scintillation fluid was added to extract the desulphated substrate and the CPM present in an aliquot of the organic phase were counted using a beta counter.
In order to obtain total counts 10 μl of the aqueous fraction of the duplicate tubes containing only hot DHEA-s were counted after addition of scintillant and the total cpm calculated as follows: [formula] where vo +inhibitor-rate in the presence of inhibitor and vo -inhibitor=rate in the absence of inhibitor.
IC50 determined as described previously.

[2] = tested on: rat delayed type hypersensitivity model; test: Delayed type hypersensitivity in the rat; assay type: in vivo, Lewis rats; conditions: FIG. 12; CT2251 0.1, 1, 10 mg/kg s.c. days 0, 3 and 4; 24 and 48 h
Procedure: Lewis rats were sensitised with SRBC IV and challenged 4 days later with 10^8 SRBC into the footpad. The resulting swelling response was measured 24 and 48 h later. Rats were randomised into 5 groups (n=6-7) and steroids given on days 0, 3 and 4, subcutaneously. Results given as mean±sem.

Q: How did the pIC50 [1] turn out when `C[C@]12CC[C@@H]3c4ccc(OS(N)(=O)=O)cc4CC[C@H]3[C@@H]1CCC2=O` [CT 2251, Estrone 3-0-sulphamate] was run?
A: 7.40

Q: And the “inhibition of U937 sulphatase with estrone sulphate as substrate” value ([1]; FIG. 3, estrone sulphate substrate)?
A: inhibit

Q: And the “DTH footpad swelling response” value [2]?
A: can also suppress a DTH response in rats
